The values that follow come from US20220169680A1 (priority 2018, published 2022).

Common to all, as to type: cell-based
For experiment [1], the system named is A549 cells.
The test system of experiment [2] is A549 cells. The source holds these as a separate data set.
The subject of experiment [3] is A549 cells. This is another data set of the same source.

For the substance “DRFFFKCFFRRFKFGLKRGPST [Jilin-2004(H5N1)-M2-44-65 mut6]”, the “ability to carry small RNA into cells compared with the transfection reagent RNAiMax group, qPCR” value in the experiment on A549 cells [1] is “stronger than the transfection reagent RNAiMax group”.

In the case of “DRFFFKCFYRRLK [Jilin-2004(H5N1)-M2-44-56 mut9]”, the “cell-penetrating peptide function compared with the parent polypeptide” value in the experiment on A549 cells [2] was “enhanced compared to the parent polypeptide”.

With “DRFFFKCIFRRLKFGLKRGPST [Jilin-2004(H5N1)-M2-44-65 mut5]”, the “ability to carry small RNA into cells compared with the transfection reagent RNAiMax group, qPCR” value with A549 cells [1] is “stronger than the transfection reagent RNAiMax group”.

For the substance “DRFFFKCIYRRLKYGLKRGPST [Jilin-2004(H5N1)-M2-44-65 mut1]”, the “ability to carry small RNA into cells compared with the transfection reagent RNAiMax group, qPCR” value with A549 cells [1] is recorded as “stronger than the transfection reagent RNAiMax group”.

For “DRFFFKCIYRRLKYGLKRRPST [Jilin-2004(H5N1)-M2-44-65 mut2]”, the “ability to carry small RNA into cells compared with the transfection reagent RNAiMax group, qPCR” value with A549 cells [1] was “stronger than the transfection reagent RNAiMax group”.

In the case of “DRFFFKRIFRRLKFRLKRRPST [Jilin-2004(H5N1)-M2-44-65 mut11]”, the “ability to carry small RNA into cells compared with the transfection reagent RNAiMax group, qPCR” value in the experiment on A549 cells [1] is given as “stronger than the transfection reagent RNAiMax group”.

For the substance “DRFFFKRIFRRLKYRLKRRPST [Jilin-2004(H5N1)-M2-44-65 mut10]”, the “cell-penetrating peptide function compared with the parent polypeptide” value with A549 cells [2] is recorded as “stronger than that of the parent Jilin-2004(H5N1)-M2-44-65 polypeptide”.

On to “DRKRRKCKYRRKKYGRKR [Jilin-2004(H5N1)-M2-44-61 mut14]”, for which, in the experiment with A549 cells [1], the “ability to carry small RNA into cells compared with the transfection reagent RNAiMax group, qPCR” value is “stronger than the transfection reagent RNAiMax group”. The “cell-penetrating peptide function compared with the parent polypeptide” value in the experiment with A549 cells [2] is “stronger than that of the parent Jilin-2004(H5N1)-M2-44-61 polypeptide”.

On to “DRLFFICIYRRLKYGLKR [Jilin-2004(H5N1)-M2-44-61 mut6]”, for which, in the experiment on A549 cells [1], the “ability to carry small RNA into cells compared with the transfection reagent RNAiMax group, qPCR” value is “stronger than the transfection reagent RNAiMax group”.

Turning to “DRLFFKCIYRRLKYGLII [Jilin-2004(H5N1)-M2-44-61 mut16]”, the “ability to carry small RNA into cells compared with the transfection reagent RNAiMax group, qPCR” value in the experiment on A549 cells [1] was “stronger than the transfection reagent RNAiMax group”.

Take “DRLFFKCIYRRLKYGRKR [Jilin-2004(H5N1)-M2-44-61 mut13]”: the “cell-penetrating peptide function compared with the parent polypeptide” value in the experiment on A549 cells [2] is given as “stronger than that of the parent Jilin-2004(H5N1)-M2-44-61 polypeptide”.

As to “DRLFFKCIYRRRKRGLKR [Jilin-2004(H5N1)-M2-44-61 mut12]”, the “ability to carry small RNA into cells compared with the transfection reagent RNAiMax group, qPCR” value with A549 cells [1] is recorded as “stronger than the transfection reagent RNAiMax group”.

Regarding “DRLFFKIIYRRLKYGLKR [Jilin-2004(H5N1)-M2-44-61 mut8]”, the “ability to carry small RNA into cells compared with the transfection reagent RNAiMax group, qPCR” value in the experiment with A549 cells [1] is recorded as “stronger than the transfection reagent RNAiMax group”.

For the substance “DRLFFRRIYRRLKYGLKRGPST [Jilin-2004(H5N1)-M2-44-65 mut23]”, the “ability to carry small RNA into cells compared with the transfection reagent RNAiMax group, qPCR” value with A549 cells [1] is on record as “stronger than the transfection reagent RNAiMax group”.

Consider “DRLFFRRIYRRLRYRLRRRPST [Jilin-2004(H5N1)-M2-44-65 mut24]”, for which, in the experiment with A549 cells [2], the “cell-penetrating peptide function compared with the parent polypeptide” value is given as “stronger than that of the parent Jilin-2004(H5N1)-M2-44-65 polypeptide”.

On to “DRRFFKCIYRRLKYGLKR [Jilin-2004(H5N1)-M2-44-61 mut4]”, for which the “ability to carry small RNA into cells compared with the transfection reagent RNAiMax group, qPCR” value with A549 cells [1] was “stronger than the transfection reagent RNAiMax group”.

On to “DRRRRKCRRRRRKYGRKR [Jilin-2004(H5N1)-M2-44-61 mut10]”, for which the “ability to carry small RNA into cells compared with the transfection reagent RNAiMax group, qPCR” value in the experiment with A549 cells [1] is recorded as “stronger than the transfection reagent RNAiMax group”.

Take “ERGLQRRRFVQNALN [NC, reference compound]”: the “cell entry at all time points” value in the experiment with A549 cells [2] is “no entry of polypeptides was observed”.

Turning to “GPSTEGVPESMREEYRQE [FITC-Jilin-2004(H5N1)-M2-62-79]”, the “cell entry signal / cell entry properties” value in the experiment on A549 cells [2] is on record as “did not show cell entry properties”.

With “KRGPSTAGVPESMREEYRQEQQN [A/HongKong/97/98(H5N1)-M2-N-M-AH(60-82)]”, the “cell entry of rhodamine-labeled polypeptide” value with A549 cells [3] is “did not enter the cells”.

As to “KRGPSTEGVPESMREEYREEQQN [Caledonia/20/1999(H1N1)-M2-N-M-AH(60-82)]”, the “cell entry of rhodamine-labeled polypeptide” value in the experiment on A549 cells [3] is on record as “did not enter the cells”.

As to “KRGPSTEGVPESMREEYRQEQQS [Jilin-2004(H5N1)-M2-60-82]”, the “ability to carry small RNA (PGY-sRNA-26) into cells, qPCR” value in the experiment on A549 cells [1] is given as “Only the polypeptide Jilin-2004(H5N1)-M2-45-62 had the ability to carry small RNA into the cells”.

As for “KYGLKRGPSTEGVPESMR [FITC-Jilin-2004(H5N1)-M2-56-73]”, the “cell entry signal / cell entry properties” value with A549 cells [2] is recorded as “did not show cell entry properties”.

For “LKRGPSTEGVPESMREEY [FITC-Jilin-2004(H5N1)-M2-59-76]”, the “cell entry signal / cell entry properties” value in the experiment with A549 cells [2] is given as “did not show cell entry properties”.

For the substance “MSLLTEVETPTRNGWECRCSDSSD [Jilin-2004(H5N1)-M2-1-24]”, the “ability to carry small RNA (PGY-sRNA-26) into cells, qPCR” value with A549 cells [1] is given as “Only the polypeptide Jilin-2004(H5N1)-M2-45-62 had the ability to carry small RNA into the cells”. In addition, the “cell entry signal / cell entry properties” value with A549 cells [2] is “no cell entry signal was detected”.

Regarding “PLVVAASIIGILHLILWIL [Jilin-2004(H5N1)-M2-25-43]”, the “ability to carry small RNA (PGY-sRNA-26) into cells, qPCR” value with A549 cells [1] is reported as “Only the polypeptide Jilin-2004(H5N1)-M2-45-62 had the ability to carry small RNA into the cells”. The “cell entry signal / cell entry properties” value in the experiment on A549 cells [2] was “no cell entry signal was detected”.

“RAFFKCIYRRLKYGLKRG [Jilin-2004(H5N1)-M2-45-62 mut46]”: in the experiment on A549 cells [1], the “ability to carry small RNA into cells compared with the transfection reagent RNAiMax group, qPCR” value is “stronger than the transfection reagent RNAiMax group”.

As to “RFFFKCFYRRLKYGLKRG [Jilin-2004(H5N1)-M2-45-62 mut8]”, the “ability to carry small RNA into cells compared with the transfection reagent RNAiMax group, qPCR” value in the experiment with A549 cells [1] is “stronger than the transfection reagent RNAiMax group”.

Take “RFFFRRFFRRFRFRFRRR [Jilin-2004(H5N1)-M2-45-62 mut13]”: the “cell-penetrating peptide function compared with the parent polypeptide (confocal imaging)” value in the experiment with A549 cells [3] is on record as “stronger than that of the parent Jilin-2004(H5N1)-M2-45-62 polypeptide”.

For the substance “RLFFKCAYRRLKYGLKRG [Jilin-2004(H5N1)-M2-45-62 mut51]”, in the experiment on A549 cells [3], the “cell-penetrating peptide function compared with the parent polypeptide (confocal imaging)” value was “stronger than that of the parent Jilin-2004(H5N1)-M2-45-62 polypeptide”. Also, the “ability to carry small RNA into cells compared with the transfection reagent RNAiMax group, qPCR” value in the experiment with A549 cells [1] is “stronger than the transfection reagent RNAiMax group”.

As for “RLFFKCIKRRLKYGLKRG [Jilin-2004(H5N1)-M2-45-62 mut52]”, the “ability to carry small RNA into cells compared with the transfection reagent RNAiMax group, qPCR” value with A549 cells [1] is “stronger than the transfection reagent RNAiMax group”.

With “RLFFKCIYRRAKYGLKRG [Jilin-2004(H5N1)-M2-45-62 mut55]”, the “ability to carry small RNA into cells compared with the transfection reagent RNAiMax group, qPCR” value with A549 cells [1] is on record as “stronger than the transfection reagent RNAiMax group”.

As to “RLFFKCIYRRLKYGAKRG [Jilin-2004(H5N1)-M2-45-62 mut59]”, the “ability to carry small RNA into cells compared with the transfection reagent RNAiMax group, qPCR” value in the experiment on A549 cells [1] is listed as “stronger than the transfection reagent RNAiMax group”.

Turning to “RLFFKCIYRRLKYGLKRG [A/HongKong/97/98(H5N1)-M2-N-M-AH(45-62)]”, in the experiment on A549 cells [3], the “cell entry of rhodamine-labeled polypeptide” value is listed as “could all enter A549 cells”.

As to “RLFFKCIYRRLKYGLKTG [Jilin-2004(H5N1)-M2-45-62 mut61]”, the “cell-penetrating peptide function compared with the parent polypeptide (confocal imaging)” value in the experiment on A549 cells [3] is given as “stronger than that of the parent Jilin-2004(H5N1)-M2-45-62 polypeptide”. The “ability to carry small RNA into cells compared with the transfection reagent RNAiMax group, qPCR” value in the experiment on A549 cells [1] was “stronger than the transfection reagent RNAiMax group”.

With “RLFFKCIYRRLTYGLKRG [Jilin-2004(H5N1)-M2-45-62 mut56]”, the “ability to carry small RNA into cells compared with the transfection reagent RNAiMax group, qPCR” value with A549 cells [1] is “stronger than the transfection reagent RNAiMax group”.

Regarding “RLFFKCIYSRLKYGLKRG [Jilin-2004(H5N1)-M2-45-62 mut53]”, the “ability to carry small RNA into cells compared with the transfection reagent RNAiMax group, qPCR” value with A549 cells [1] is recorded as “stronger than the transfection reagent RNAiMax group”.

As for “RLFFKIIYRRLKYGLKRG [Jilin-2004(H5N1)-M2-45-62 mut50]”, in the experiment on A549 cells [3], the “cell-penetrating peptide function compared with the parent polypeptide (confocal imaging)” value is recorded as “stronger than that of the parent Jilin-2004(H5N1)-M2-45-62 polypeptide”.

On to “RLFFRCIYRRLKYGLKRG [Jilin-2004(H5N1)-M2-45-62 mut1]”, for which the “ability to carry small RNA into cells compared with the transfection reagent RNAiMax group, qPCR” value in the experiment with A549 cells [1] was “stronger than the transfection reagent RNAiMax group”.

Consider “RLFFRRIYRRLKYGLKRG [Jilin-2004(H5N1)-M2-45-62 mut2]”, for which, in the experiment with A549 cells [3], the “cell-penetrating peptide function compared with the parent polypeptide (confocal imaging)” value is “stronger than that of the parent Jilin-2004(H5N1)-M2-45-62 polypeptide”.

With “RLFFRRIYRRLRYGLKRG [Jilin-2004(H5N1)-M2-45-62 mut3]”, the “cell-penetrating peptide function compared with the parent polypeptide (confocal imaging)” value in the experiment with A549 cells [3] is listed as “stronger than that of the parent Jilin-2004(H5N1)-M2-45-62 polypeptide”.

For the substance “RLFFRRIYRRLRYRLKRG [Jilin-2004(H5N1)-M2-45-62 mut4]”, in the experiment with A549 cells [3], the “cell-penetrating peptide function compared with the parent polypeptide (confocal imaging)” value is on record as “stronger than that of the parent Jilin-2004(H5N1)-M2-45-62 polypeptide”.

In the case of “RLFFRRIYRRLRYRLRRR [Jilin-2004(H5N1)-M2-45-62 mut6]”, in the experiment on A549 cells [3], the “cell-penetrating peptide function compared with the parent polypeptide (confocal imaging)” value is given as “stronger than that of the parent Jilin-2004(H5N1)-M2-45-62 polypeptide”.

“RLFSKSIYR1FKHGLKRG [Caledonia/20/1999(H1N1)-M2-N-M-AH(45-62)]”: in the experiment with A549 cells [3], the “cell entry of rhodamine-labeled polypeptide” value was “could all enter A549 cells”.

Consider “RLIFKCIYRRLKYGLKRG [Jilin-2004(H5N1)-M2-45-62 mut47]”, for which the “ability to carry small RNA into cells compared with the transfection reagent RNAiMax group, qPCR” value with A549 cells [1] was “stronger than the transfection reagent RNAiMax group”.

With “RRFFFKCFFRRFKFGLKRGPST [Jilin-2004(H5N1)-M2-44-65 mut7]”, the “ability to carry small RNA into cells compared with the transfection reagent RNAiMax group, qPCR” value with A549 cells [1] was “stronger than the transfection reagent RNAiMax group”.

Turning to “RRLFFKCIYRRLKYGLKR [Jilin-2004(H5N1)-M2-44-61 mut1]”, in the experiment with A549 cells [1], the “ability to carry small RNA into cells compared with the transfection reagent RNAiMax group, qPCR” value is “stronger than the transfection reagent RNAiMax group”.

For “RRLFFKCIYRRLKYGLKRGPST [Jilin-2004(H5N1)-M2-44-65 mut15]”, the “ability to carry small RNA into cells compared with the transfection reagent RNAiMax group, qPCR” value with A549 cells [1] is listed as “stronger than the transfection reagent RNAiMax group”.

Take “RRLKYGLKRGPSTEGVPE [FITC-Jilin-2004(H5N1)-M2-53-70]”: the “cell entry signal / cell entry properties” value in the experiment on A549 cells [2] was “did not show cell entry properties”.

Turning to “TEGVPESMREEYRQEQQS [FITC-Jilin-2004(H5N1)-M2-65-82]”, the “cell entry signal / cell entry properties” value with A549 cells [2] is listed as “did not show cell entry properties”.
